Patent US20260069653A1, “COMPLEMENT INHIBITOR DOSING REGIMENS” (Apellis Pharmaceuticals, Inc., priority 2021, published 2026)
Square brackets hold non-standard residues; d marks the D form. Trp(5-F) = N[C@@H](Cc1c[nH]c2ccc(F)cc12)C(=O)O; Trp(5-Me) = Cc1ccc2[nH]cc(C[C@H](N)C(=O)O)c2c1; Trp(6-F) = N[C@@H](Cc1c[nH]c2cc(F)ccc12)C(=O)O; Bpa = N[C@@H](Cc1ccc(C(=O)c2ccccc2)cc1)C(=O)O; 1Nal = N[C@@H](Cc1cccc2ccccc12)C(=O)O; 2Nal = N[C@@H](Cc1ccc2ccccc2c1)C(=O)O; Igl = N[C@H](C(=O)O)C1Cc2ccccc2C1

Experiments:
complement activation = conditions: fold more active than compstatin amidated at the C-terminus; published data and assays; cited from earlier work
acute hemolysis [1] = assay: LDH during intensive dosing for acute hemolysis in PNH patients; type: in vivo, human
Description: (§1) Eligibility criteria for the intensive dosing regimen included lactate dehydrogenase (LDH) >2× the upper limit of normal (ULN) and one new or worsening sign or symptom of hemolysis (e.g., decreased hemoglobin (Hb), hemoglobinuria, or fatigue).
(§2) Patients who experienced additional acute hemolysis events after receiving intensive PEG treatment received additional doses of intensive SC PEG or intensive IV PEG. […] Analyzed data relates to the first event if a patient experienced multiple acute hemolysis events.
(§3) Levels of Hb (on day 1) and LDH (on day 1, day 2, days 7-12, days 14-19) during the event of acute hemolysis were determined. […] For each patient, at least 6 days were between the measurements on day 7-12 and day 14-19. Safety was evaluated by the incidence and severity of adverse events.

[2] = human, in vivo
Protocol: (§4) Subjects were monitored during a safety period from Day 2 to 8 by physical examination, ECG, hematology, serum chemistry, monitoring for injection site reaction and treatment emergent adverse events (TEAEs). Follow-up safety assessments were performed on Days 15, 22, 29, and 43.

acute hemolysis [3] = assay: Hemoglobin during intensive dosing for acute hemolysis in PNH patients; type: in vivo, human; conditions: patients with and without RBC transfusion (FIG. 6)
Description: as §1, §2, §3

[4] = Safety in healthy volunteers, ascending dose study
Protocol: as §4

C3a = C3a levels (ELISA) after single IV infusion; type: in vivo, human
Protocol: C3a Split Product Testing: C3a was measured by ELISA (BD Pharmingen optEIA) using microtiter plates precoated with specific monoclonal antibodies against C3a. The standards, controls and test specimens were diluted and placed in duplicate into the wells and incubated to allow binding of the split products to the antibodies in the well. After washing away unbound proteins, a second anti-split products antibody, conjugated to an enzyme (horseradish peroxidase) was allowed to react with the split products bound to the first antibody on the plate. After an appropriate incubation time and washing, a chromogenic substrate for the enzyme was added to the wells, and the intensity of color that developed was determined spectrophotometrically. Three QC specimens were run on every assay.
C3a ELISA Calculations: The optical densities (OD) for each of the wells containing the standards for the assay were entered as the dependent variables (Y) in a linear regression calculation (Microsoft Excel) in which the concentrations of the standards (provided by the kit manufacturer, BD Pharmingen) were the independent variables (X). The slope (m) and intercept (b) obtained from the regression analysis on a log-log were then used to calculate the concentrations of the unknowns (controls and test specimens). The formula for a straight line was used to calculate the unknown values using a log/log solution: LnY=mLnX+b, solved for X: X=exp (LnY−b)/m*dilution.

[5] = system: total complement hemolytic activity (CH50); assay: CH50 after single IV infusion; type: in vivo, human
[6] = system: alternative complement pathway hemolytic activity (AH50); assay: AH50 hemolytic assay on serum after single IV infusion; type: in vivo, human
Protocol: AH50 Method: AH50 was measured by a hemolytic assay based on lysis of rabbit red blood cells (RA) due to activation of complement on the cell's surface. The AH50 (50% Alternative Complement Hemolytic dose) was determined for each component by adding a limiting amount of the test serum or plasma. For this assay, the buffers are created such as to block activity of the classical pathway, which requires calcium. Serial dilutions of the test specimen were mixed with equal volumes of the RA. This functional assay measured the amount of hemoglobin that was released when the target cells were lysed by the action of complement, and from this, the percentage of the cells that had been lysed was calculated. The major peak of the hemoglobin spectrum was read at 415 nm wavelength. For each assay the run was verified with a five-point standard and five points of characterized QC control.
AH50 Calculations: For verifiable continuity between assay runs, the AH50 assay was performed using a human serum standard with known AH50 activity. […] If the dilution series produced lysis that spanned the 50% point, the three points closest to the 50% point were used to determine the slope and intercept of the line by linear regression. If the percent lysis was very low and none of the dilutions produced 50% lysis, then the two highest points in the series were used, because the slope changes drastically as the sigmoid curve reaches its lower limit. Each specimen from the study was diluted in the same manner and individual 50% lysis points determined by linear regression.

[7] = Serum concentration of PEG after single IV infusion, ascending dose study; type: in vivo, human; conditions: for peak concentration (Cmax), mean serum concentration: healthy subjects
[8] = Safety of intensive dosing in PNH patients; type: in vivo, human; conditions: intensive PEG treatment
Description: as §1, §2, §3

Ac-ICVWQDWGAHRCdT-COOH [Ac-V4W/H9A/T13dT-OH]
Activity over compstatin (complement activation): 55x

Ac-ICV(2-Igl)QDWGAHRCT-COOH (Ac-ICV[Igl]QDWGAHRCT-OH; not fully specified (bridges); printed as Ac-ICV(2-Igl)QDWGAHRCT-COOH; cysteine pairing not given here) [Ac-V42Igl/H9A-OH]
Activity over compstatin (complement activation): 37x

Ac-ICV(5-methyl-W)QDWGAHRCT-CONH2 (Ac-ICV[Trp(5-Me)]QDWGAHRCT-NH2; not fully specified (bridges); printed as Ac-ICV(5-methyl-W)QDWGAHRCT-CONH2; cysteine pairing not given here) [Ac-V4(5-MeW)/H9A]
Activity over compstatin (complement activation): 67x

Ac-ICV(2-Igl)QDWGAHRCT-CONH2 (Ac-ICV[Igl]QDWGAHRCT-NH2; not fully specified (bridges); printed as Ac-ICV(2-Igl)QDWGAHRCT-CONH2; cysteine pairing not given here) [Ac-V42Igl/H9A]
Activity over compstatin (complement activation): 39x

Ac-ICV(Bpa)QDWGAHRCT-CONH2 (Ac-ICV[Bpa]QDWGAHRCT-NH2; not fully specified (bridges); printed as Ac-ICV(Bpa)QDWGAHRCT-CONH2; cysteine pairing not given here) [Ac-V4(Bpa)/H9A]
Activity over compstatin (complement activation): 86x

Ac-ICVVQDWGHHRCT-CONH2 [Ac-compstatin]
Activity over compstatin (complement activation): 3x

Ac-ICVWQD(5fW)GAHRCT-CONH2 (Ac-ICVWQD[Trp(5-F)]GAHRCT-NH2; not fully specified (bridges); printed as Ac-ICVWQD(5fW)GAHRCT-CONH2; cysteine pairing not given here) [Ac-V4W/W7(5fW)/H9A]
Activity over compstatin (complement activation): 121x

Ac-ICVYQDWGAHRCT-CONH2 [Ac-V4Y/H9A]
Activity over compstatin (complement activation): 14x

H-GICV(6fW)QD(6fW)GAHRCTN-COOH (H-GICV[Trp(6-F)]QD[Trp(6-F)]GAHRCTN-OH; not fully specified (bridges); cysteine pairing not given here) [+G/V4(6fW)/W7(6fW)H9A+N-OH]
Activity over compstatin (complement activation): 126x

Ac-ICV(1-Nal)QDWGAHRCT-COOH (Ac-ICV[1Nal]QDWGAHRCT-OH; not fully specified (bridges); printed as Ac-ICV(1-Nal)QDWGAHRCT-COOH; cysteine pairing not given here) [Ac V4(1-Nal)/H9A-OH]
Activity over compstatin (complement activation): 30x

H-GICV(5fW)QD(5fW)GAHRCTN-COOH (H-GICV[Trp(5-F)]QD[Trp(5-F)]GAHRCTN-OH; not fully specified (bridges); cysteine pairing not given here) [G/V4(5f-WV)/WV7(5fW)/H9A+N-OH]
Activity over compstatin (complement activation): 112x

Ac-ICVWQDWGAHRCT-CONH2 (Ac-ICVWQDWGAHRCT-NH2; not fully specified (bridges); printed as Ac-ICVWQDWGAHRCT-CONH2; cysteine pairing not given here) [Ac-V4W/H9A]
Activity over compstatin (complement activation): 45x

Ac-ICV[(2-Nal)QDWGAHRCT-COOH (Ac-ICV[2Nal]QDWGAHRCT-OH; not fully specified (bridges); printed as Ac-ICV[(2-Nal)QDWGAHRCT-COOH; cysteine pairing not given here) [Ac V4(2-Nal)/H9A-OH]
Activity over compstatin (complement activation): 38x

Ac-ICV(Bpa)QDWGAHRCT-COOH (Ac-ICV[Bpa]QDWGAHRCT-OH; not fully specified (bridges); printed as Ac-ICV(Bpa)QDWGAHRCT-COOH; cysteine pairing not given here) [Ac-V4(Bpa)/H9A-OH]
Activity over compstatin (complement activation): 49x

Poly(oxy-1,2-ethanediyl), α-hydro-ω-hydroxy-, 15,15′-diester with N-acetyl-L-isoleucyl-L-cysteinyl-L-valyl-1-methyl-L-tryptophyl-L-glutaminyl-L-α-aspartyl-L-tryptophylglycyl-L-alanyl-L-histidyl-L-arginyl-L-cysteinyl-L-threonyl-2-[2-(2-aminoethoxy)ethoxy]acetyl-N^6-carboxy-L-lysinamide cyclic (2-->12)-(disulfide) [PEG]
patients with LDH levels decreased at day 7-12 (acute hemolysis [1]; all 13 patients, intensive SC or IV PEG): 13 patients
patients with LDH levels decreased between day 1 and day 2 (acute hemolysis [1]; all evaluable patients, intensive SC or IV PEG 1080 mg): 8 of 12
patients with LDH levels further decreased from day 7-12 to day 14-19 (acute hemolysis [1]; all patients, intensive SC or IV PEG): 11 of 13
patients with LDH levels further decreased from day 7-12 to day 14-19 (acute hemolysis [1]; intensive IV PEG): 3 of 4
patients with LDH levels decreased between day 1 and day 2 (acute hemolysis [1]; intensive IV PEG (single 1080 mg dose)): 4 of 4
patients with LDH levels further decreased from day 7-12 to day 14-19 (acute hemolysis [1]; intensive SC PEG): 7 of 9
patients with LDH levels decreased between day 1 and day 2 (acute hemolysis [1]; intensive SC PEG (1080 mg every 24 hours for 3 doses)): 4 of 8
incidence of upper respiratory infections (TEAE) [2]: 12.5%
mean Hb from day 1 of intensive therapy (acute hemolysis [3]): increased
subjects with moderate TEAE (infusion-related reaction, dizziness, clamminess, nausea) that led to study discontinuation ([4]; 2300 mg cohort, one subject, percent of the twenty subjects): 5.0%
incidence of diarrhea (TEAE) ([4]; PEG groups, n=2): 12.5%
incidence of headache (TEAE) ([4]; PEG groups, n=6): 37.5%
serious adverse events, deaths, severe TEAEs ([4]; healthy subjects, single IV 200-2300 mg): No serious adverse events, deaths, or severe TEAEs occurred
time within which initial rapid decrease in mean C3a levels occurred (C3a; all PEG groups): ≤ 1 h
time of trough mean C3a levels after dosing (C3a; all dose groups): ≤ 24 h
maximum mean C3a decrease from baseline (C3a; single IV 1500 mg, at 4 hours post-dosing start): 57%
Mean CH50 upon dosing ([5]; all cohorts): decreased immediately
time for which decrease in mean CH50 was retained ([5]; single IV 1500 mg): at least 48 hours
time by which mean CH50 returned to baseline ([5]; single IV 2300 mg, post-dosing start): ≤ 24 h
AH50 level from 1 hr post-dosing start ([6]; 1500 and 2300 mg single IV doses): undetectable levels
time within which decreases in mean AH50 values were detected ([6]; all PEG cohorts (200-2300 mg single IV)): ≤ 1 h
mean maximum decrease of AH50 compared to placebo ([6]; all PEG groups, p<0.0001): statistically significant larger
time for which decrease in mean AH50 was maintained ([6]; single IV 200 mg): at least 12 hrs
time for which decrease in mean AH50 was maintained ([6]; single IV 600 mg): ≥ 72 h
time for which decrease in mean AH50 was maintained ([6]; single IV 1500 mg): ≥ 144 h
terminal elimination half-life ([7]; Cohort 4 (2300 mg single IV)): 11.9 days
peak concentration (Cmax), mean serum concentration ([7]; single IV 200 mg, at 1 hr post-dose (infusion start)): 61 µg/mL
peak concentration (Cmax), mean serum concentration ([7]; single IV 600 mg, at 1 hr post-dose (infusion start)): 193 µg/mL
peak concentration (Cmax), mean serum concentration ([7]; single IV 1500 mg, at 4 hrs): 542 µg/mL
peak concentration (Cmax), mean serum concentration ([7]; single IV 2300 mg, at 1 hr post-dose (infusion start)): 708 µg/mL
patients with serious adverse events ([8]; 4 of 13 patients): 31%
patients with treatment-emergent adverse events ([8]; Nine of 13 patients): 69%
adverse events leading to treatment discontinuation [8]: None of the adverse events led to treatment discontinuation
adverse events of meningitis or thrombosis [8]: No adverse events of meningitis or thrombosis occurred
share of treatment-emergent adverse events that were mild [8]: 76%

Ac-ICV(5fW)QDWGAHRCT-CONH2 (Ac-ICV[Trp(5-F)]QDWGAHRCT-NH2; not fully specified (bridges); printed as Ac-ICV(5fW)QDWGAHRCT-CONH2; cysteine pairing not given here) [Ac-V4(5fW)/H9A]
Activity over compstatin (complement activation): 31x

Ac-ICV(2-Nal)QDWGAHRCT-CONH2 (Ac-ICV[2Nal]QDWGAHRCT-NH2; not fully specified (bridges); printed as Ac-ICV(2-Nal)QDWGAHRCT-CONH2; cysteine pairing not given here) [Ac-V4(2-Nal)/H9A]
Activity over compstatin (complement activation): 99x
